Source: publication PMC10797614, “MYC-Targeting Inhibitors Generated from a Stereodiversified Bicyclic Peptide Library” (Journal of the American Chemical Society, 2024)
*1 amine or outer side, *2 acyl side, *3 side chain or, on linkers, in order; H or OH if unused. Where a SMILES comes first, the peptide text is derived from it. Bridges are numbered along the chain shown (N, C = ends). X1 = O=C([C@@H]1C[C@H](C=CCO[*:3])C[C@@H]1C=CCO[*:1])[*:2]

What was measured:
MYC = biological target: T1, MYC (Homo sapiens, UniProt P01106); experiment: Cellular thermal shift assay (CETSA) with U87 cell lysate; assay type: binding; conditions: U87 cell lysate 1.481 mg/mL, 195 μL lysate + 19.5 μL peptide (1 mM in PBS); 50 to 65 °C for 3 min; Western blot; versus control
T1 construct: made in house; host or cells: E. coli BL21(DE3)
Method: To validate that NT-B2R could bind to MYC in complex biological environments, we performed cellular thermal shift assays using U87 cell lysates[34] (Figure 4A). U87 is a human glioblastoma cell line with known dependence on MYC activities.[35]−[37]
Liposome loading capacity quantification
200 μL of the liposome solution (4 mg/mL) was dried under vacuum and extracted with 50 μL of DMSO. The obtained solution was analyzed on a reverse-phase HPLC and the corresponding peptide peak was identified by mass spectrometry. The peptide concentration was then determined by comparing the peak area to that of a standard solution. The loading capacities were calculated accordingly.
Cells were seeded in a 96-well plate at 4 k/well and incubated overnight. Afterward, the cells were washed with complete media and treated with varying concentrations of peptide-loaded liposome or empty liposome. The final media volume was 200 μL in each well. […] The 96-well plate was shaken for 15 min on an orbital mixer in dark, and the fluorescence (540 nm excitation, 590 nm emission) intensities were read by a […]
U87 cells were detached by trypsin and resuspended in 5 mL of PBS(1x). […] The protein concentrations were determined by BCA assay.
To prepare the sample for the cellular thermal shift assay, the quantified cell lysate was adjusted to a final concentration of 1.481 mg/mL with lysis buffer. […]

[1] = tested on: MYC and phosphor-MYC (p-MYC, T58); experiment: Western blot of MYC and phosphor-MYC levels in treated U87 cells; assay type: cell-based, human; conditions: liposome-delivered peptide
Source text: We then evaluated the biological effects of NT-B2R in cells.

[2] = tested on: MYC transcription activity (HALLAMRK MYC TARGETS V1 gene set); experiment: RNA-seq, differential expression (DESeq) and GSEA in U87 cells; assay type: cell-based, human; conditions: treated vs vehicle, p-value < 0.001, FDR 0.005
Source text: To test whether NT-B2R directly affected MYC activity, we performed RNA-seq on the U87 cells and evaluated the differentially expressed genes using DESeq. […] A caveat here is that a global shift of transcription activities will not be observable by this analysis, due to the embedded normalization procedure.[38] Nevertheless, gene set enrichment analysis (GSEA) results highlighted that MYC target gene sets were enriched with high statistical significance and low false discovery probabilities, supporting that MYC was NT-B2R’s main target (Figure 4G).
U87 cells were seeded in six 100x20 mm cell culture dishes at 1000 k/dish and incubated for 24h in full DMEM medium containing 10% FBS and 1% PS. […]
Total RNA of the harvested cells was extracted and purified using the RNeasy Micro Kit (QIAGEN). Following the extraction, RNA integrity and quantitation were assessed using the RNA Nano 6000 Assay Kit on the Bioanalyzer 2100 system (Agilent Technologies). […] The obtained six library samples were pooled together and sequenced on a NovaSeq 6000 (Illumina) to reach approximately 30M 150bp pair-end reads per sample.
The obtained sequencing data was preprocessed using TrimGalore, aligned using STAR, and counted using HTSeq. […]

T1 sequence (P01106 16-454): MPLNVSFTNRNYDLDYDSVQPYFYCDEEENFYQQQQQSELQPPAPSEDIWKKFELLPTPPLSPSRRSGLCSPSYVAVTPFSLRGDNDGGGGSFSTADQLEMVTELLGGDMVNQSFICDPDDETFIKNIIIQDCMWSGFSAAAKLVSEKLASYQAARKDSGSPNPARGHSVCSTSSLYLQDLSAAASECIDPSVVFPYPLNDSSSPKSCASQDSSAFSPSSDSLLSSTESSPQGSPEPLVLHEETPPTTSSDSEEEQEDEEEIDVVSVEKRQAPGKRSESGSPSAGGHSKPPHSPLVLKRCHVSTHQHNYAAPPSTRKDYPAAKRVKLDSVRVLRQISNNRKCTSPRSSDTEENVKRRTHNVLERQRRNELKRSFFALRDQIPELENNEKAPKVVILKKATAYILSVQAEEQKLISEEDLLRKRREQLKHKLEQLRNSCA

CC(C)C[C@@H]1NC(=O)[C@H](CCCNC(=N)N)NC(=O)[C@@H]2CCCCNC(=O)[C@@H]3C[C@H](C=CCOC(=O)CC[C@@H](C(N)=O)NC1=O)C[C@@H]3C=CCOC(=O)CC[C@H](N)C(=O)N[C@@H](Cc1c[nH]c3ccccc13)C(=O)N1CCC[C@H]1C(=O)N[C@@H](Cc1c[nH]cn1)C(=O)N[C@@H](CCCNC(=N)N)C(=O)N2 [NT-B2R] (H-EWPHRKRLE-NH2; linker 1-6-9 via X1; N-terminus and C-terminus assumed)
increase of MYC melting temperature, CETSA (MYC): ~2 °
expression and phosphorylation levels of MYC (Western blot) [1]: did not alter
GSEA normalized enrichment score (NES), HALLAMRK MYC TARGETS V1 [2]: −5.955
